Read-outs that look alike come from different tables or passages of the source.
Key:
[1] = test system: E. coli DH10B; test: MIC50 determination and initial screening from OD600 growth curves, E. coli DH10B; type: cell-based, Escherichia coli; details: for MIC50 / inhibition at 3300 µM: Escherichia coli, 15 h; for MIC50: E. coli DH10B; for inhibition at 3300 µM: DH10B, 3.3 mM, read-out: initial antimicrobial screening, inhibition of growth, E. coli
Excerpt: The antimicrobial activity of SSAs 1–14 was established against both a model Gram-positive, clinically relevant methicillin resistant Staphylococcus aureus (MRSA), and a model Gram-negative, E. coli bacteria, Table 1. Here MIC50 values are given in mM to enable the derivation of molecular structure: antimicrobial efficacy: physical property relationships. […]
Data were acquired in endpoint mode. […]
Section 3: Microbial Methods
These methods were taken directly from UK Health and Security Office (UKHSA) standard operating […]
Preparation of Luria Broth media (LB): Yeast extract (5 g), tryptone (10 g) and sodium chloride (10 g) were dissolved in dH₂O (1 L) then divided into bottles and autoclaved.
Preparation of Luria Broth (LB) agar plates: Agar (6 g) was added to LB (400 mL) and autoclaved. Once cool, the LB agar was poured into sterile petri dishes under sterile conditions and allowed to set. LB plates were stored at 4 °C until use.
Preparation of bacterial plates: Sterile LB agar plates were streaked using Escherichia coli DH10B or USA300 Methicillin-Resistant Staphylococcus aureus then incubated at 37 °C overnight.
Preparation of Inoculum: An initial culture was made up by inoculating LB media (5 mL) with a single colony of bacteria under sterile conditions and incubated at 37 °C with shaking overnight. The following day, overnight bacterial cultures were subcultured into fresh LB medium to a starting OD600 […]
Preparation of 96 well microplate for screening: 20 mM solutions of each compound to be tested were made up using 5 % ethanol. The 1:100 cell suspension (150 µL) was pipetted into the wells and SSA compound solutions (30 µL) were added into each well. The final screening concentration for each compound was 3.3 mM in the well. These were incubated for 20 hours in a plate reader, with optical density readings being taken at 600 nm every 15 minutes. Optical density readings were plotted against time to produce growth curves. […]
individual wells under sterile conditions. Compounds (30 µL) were added to the wells to equal a total volume of 180 µL in the wells. Six repeats of each concentration for each compound were created each plate. The plates were sealed using parafilm, then incubated at 37°C in a microplate reader for 18-25 hours. Optical density readings were taken at 600 nm every 15 min. Data was used to generate […]
Calculation of MIC50: Growth curves were plotted using OD600 optical density readings in Microsoft ® Excel ® 2013. OD600 optical density readings 900 minutes from the start of each of these growth cultures for each concentration of compound were plotted in Origin ® 2015. The resultant curve was normalized and fitted using the Boltzmann fit to define the MIC50 values for each compound.

[2] = test system: PG nanodiscs; test: Phospholipid nanodisc 1H NMR CPMG coordination assay, PG nanodiscs; type: binding; details: SSA 100 µM
Excerpt: (§1) Finally, to establish how any single SSA structural variation affects the coordination of an individual salt component to the surface of a phospholipid membrane, the binding of the anionic and cationic components of SSAs 5–12 with nanodiscs comprised of PC, PG or the PE : PG mix (Table 2) was studied. Nanodiscs were synthesised from synthetic vesicles of the relevant phospholipid composition. For full synthetic procedures and nanodisc characterisation please see ESI (Section 13). ^†[34,35]
(§2) Styrene-maleic acid (SMA) nanodiscs are small biomimetic scaffolds with a hydrodynamic diameter ≈ 10 nm. They consist of a single disc-shaped planar phospholipid bilayer, ‘belted’ in this instance with a synthetic SMA co-polymer. Here nanodiscs of a specific phospholipid composition were titrated against a solution of SSAs 5–12 (0.10 mM) in a sodium phosphate buffer (20 mM) with NaCl (20 mM) at pH 7.4. This solution was supplemented with 5% D2O, to enable NMR locking and 4,4-dimethyl4-silapentane-1-sulfonic acid (DSS – 0.02 mM) to act as an internal standard. The nanodiscs were then titrated against the SSA, while the SSA concentration was maintained as constant, well below the CMC (Table 3).[38] A 1D ^1H NMR with a Carr–Purcell–Meiboom–Gill sequence (CPMG) filter (300 ms),[36,48] modified with a watergate element was then obtained for each experimental data point. The watergate element was used to allow suppression of the water signal, whereas the CPMG filter enabled the suppression of those resonances from molecular species with long correlation times, which in this instance correlate to the signals of those SSAs coordinated to the nanodisc, rather than those which exist as free species in solution. Comparative integration of the resonances corresponding to the SSA cation or anion, standardised against the DSS internal standard, permits the percentage of the individual SSA components coordinated to the phospholipid nanodisc to be established with respect to increasing nanodisc concentration.
(§3) However, when considering the 1/EC50 for the SSA cationic component (Fig. 10b), the reverse is true. This is perhaps expected, but nevertheless despite the identical experimental conditions, including the same TBA counter cation across SSAs 5–12, there is a marked difference in the 1/EC50 obtained, where the only difference is the SSA anion present. This is most noticeable for the series of SSA titrations involving the PE : PG mix (Table 2) nanodiscs. The only variation within this set of titrations is the structure of the SSA anion; we therefore conclude that the SSA anion is influencing SSA cation nanodisc coordination events. This observation provides evidence for the presence of further complex interactions informing SSA:nanodisc coordination processes. […]
(§4) Data were acquired in endpoint mode. All experiments were repeated in triplicate […]
(§5) Nanodisc preparation: Lipid films were resuspended in Buffer (20 mM NaCl, 20 mM NaH 2PO4, pH 7.4) and sonicated for 1 hour, at a 5:1 ratio, SMA was added and incubated at 37 °C for 1 hour. Dialysed overnight in 5 L of the same buffer in 10 KDa cut-off dialysis tubing, concentrated, and underwent gel filtration size exclusion chromatography on a Superdex 200 10/300 GL column (GE Healthcare) in the same buffer, whilst monitoring absorbance at 260 nm. Nanodisc quantification carried out via monitoring of absorbance at 260 nm using a calibration curve.2
(§6) 1H NMR CPMG: 1H NMR CPMG3,4 spectra were obtained with a Bruker Avance III […] spectrometer equipped with a TCIP cryoprobe at 298 K. Samples were supplemented with 5 % D 2O and 0.02 mM 4,4-dimethyl4-silapentane-1-sulfonic acid (DSS). The standard zgprcpmg pulse sequence from the Bruker library was modified with a watergate element to allow suppressi on of the water signal and was used for all experiments. Although this sequence is readily obtainable, we are happy to provide it on request. The P1 pulses were 9 µs at a power of 7.9 W. Presaturation was applied between […]

[3] = test system: PC nanodiscs; test: Phospholipid nanodisc 1H NMR CPMG coordination assay, PC nanodiscs; type: binding; details: SSA 100 µM
Excerpt: as §1, §2, §3, §4, §5, §6

[4] = Table S3, conversion of the mM values of Table 1, after 900 mins
[5] = concentration of nanodisc coordinating 50 % of the SSA anion, Hill Plot fit, Vmax fixed 100 %, read-out: EC50 PC, anionic SSA component
[6] = concentration of nanodisc coordinating 50 % of the SSA anion, Hill Plot fit, Vmax fixed 100 %, read-out: EC50 PG, anionic SSA component
[7] = concentration of nanodisc coordinating 50 % of the SSA cation, Hill Plot fit, Vmax fixed 100 %, read-out: EC50 PG, cationic SSA component
[8] = n = 3, 0.5 McFarland standard, after 900 min, number in bracket = efficacy rank
[9] = experimental endpoint 4.00 µM nanodisc, read-out: EC50 PC, cationic SSA component

Row | Compound | MIC50 [1, 4] | EC50 [3, 5] | EC50 [2, 6] | EC50 [2, 7] | further results
1 | O=C(NCS(=O)(=O)O)Nc1ccccc1-c1nc2ccccc2s1 [SSA 5] | 2160 µg/mL | – | – | – | EC50 ([2]; experimental endpoint 4.00 µM nanodisc, read-out: EC50 PG, cationic SSA component): > 4000 nM
2 | O=C(NCCCS(=O)(=O)O)Nc1ccc(C(F)(F)F)cc1 [SSA 2] | 840 µg/mL | – | – | – | –
3 | Cc1ccc2nc(-c3ccc(NC(=O)NCC(=O)O)cc3)sc2c1 [SSA 11] | – | 490 nM | 2100 nM | 2820 nM | –
4 | Cc1ccc2nc(-c3ccc(NC(=S)NCS(=O)(=O)O)cc3)sc2c1 [SSA 12] | – | 140 nM | 290 nM | 900 nM | inhibition at 3300 µM ([1]; after 900 min): < 10%; EC50 ([3]; concentration of nanodisc coordinating 50 % of the SSA cation, Hill Plot fit, Vmax fixed 100 %, read-out: EC50 PC, cationic SSA component): 2240 nM
5 | O=C(NCS(=O)(=O)O)Nc1ccc(C(F)(F)F)cc1 [SSA 1] | 2080 µg/mL | – | – | – | –
6 | O=C(NCS(=O)(=O)O)Nc1ccc(-c2nc3ccccc3s2)cc1 [SSA 8] | 2210 µg/mL | 2660 nM | – | 3110 nM | MIC50 [1, 8]: 3660 µM
7 | Cc1ccc2nc(-c3ccc(NC(=O)NCS(=O)(=O)O)cc3)sc2c1 [SSA 6] | 3110 µg/mL | 360 nM | 820 nM | 2860 nM | –
8 | Cc1ccc2nc(-c3ccc(NC(=O)NCCCS(=O)(=O)O)cc3)sc2c1 [SSA 10] | 750 µg/mL | 360 nM | 500 nM | 1160 nM | MIC50 [1, 8]: 1160 µM; EC50 [3, 9]: > 4000 nM
9 | Cc1ccc2nc(-c3ccc(NC(=O)NCCC(=O)O)cc3)sc2c1 [SSA 9] | 1370 µg/mL | 270 nM | 1070 nM | 2690 nM | MIC50 [1, 8]: 2160 µM; EC50 [3, 9]: > 4000 nM
10 | Cc1ccc2nc(NC(=O)NCS(=O)(=O)O)sc2c1 [SSA 7] | – | – | – | 3420 nM | inhibition at 3300 µM ([1]; after 900 min): < 10%; initial antimicrobial screening outcome, E. coli ([1]; Table S3, screening at 3.3 mM): Fail
11 | O=C(O)CNC(=O)Nc1ccc(C(F)(F)F)cc1 [SSA 4] | 630 µg/mL | – | – | – | –

Reference: paper PMC9400670, “Establishing the selective phospholipid membrane coordination, permeation and lysis properties for a series of ‘druggable’ supramolecular self-associating antimicrobial amphiphiles” (Chemical Science, 2022)
